Experimental data as given in PubChem BioAssay (NCI).
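Values below derive from 48-hour exposures of cells grown in 96-well plates, with endpoints linearly interpolated between the two concentrations bracketing the appropriate inhibition level. The concentration for full growth arrest is given as TGI.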

Legend:
Assay in all cases: NCI-60 cell line screen, 48 h
NCI-H23 lung = tested on: NCI-H23 lung
UACC-257 melanoma = tested on: UACC-257 melanoma
SNB-19 CNS = tested on: SNB-19 CNS
SK-MEL-2 melanoma = tested on: SK-MEL-2 melanoma
M14 melanoma = tested on: M14 melanoma
NCI/ADR-RES ovarian = tested on: NCI/ADR-RES ovarian
HCT-15 colon = tested on: HCT-15 colon
HCT-116 colon = tested on: HCT-116 colon
SK-MEL-28 melanoma = tested on: SK-MEL-28 melanoma
MCF7 breast = tested on: MCF7 breast
CAKI-1 renal = tested on: CAKI-1 renal
RXF 393 renal = tested on: RXF 393 renal
A549 NSCLC = tested on: A549 NSCLC
OVCAR-4 ovarian = tested on: OVCAR-4 ovarian
MDA-MB-231 breast = tested on: MDA-MB-231 breast
OVCAR-8 ovarian = tested on: OVCAR-8 ovarian
786-0 renal = tested on: 786-0 renal
T-47D breast = tested on: T-47D breast
HL-60(TB) leukemia = tested on: HL-60(TB) leukemia
HCC-2998 colon = tested on: HCC-2998 colon
IGROV1 ovarian = tested on: IGROV1 ovarian
UACC-62 melanoma = tested on: UACC-62 melanoma
SF-295 CNS = tested on: SF-295 CNS
HOP-92 NSCLC = tested on: HOP-92 NSCLC
NCI-H226 lung = tested on: NCI-H226 lung
KM12 colon = tested on: KM12 colon
LOX IMVI melanoma = tested on: LOX IMVI melanoma
COLO 205 colon = tested on: COLO 205 colon
MDA-MB-435 = tested on: MDA-MB-435
SF-539 CNS = tested on: SF-539 CNS
NCI-H460 lung = tested on: NCI-H460 lung
MDA-N = tested on: MDA-N
SNB-75 CNS = tested on: SNB-75 CNS
U251 CNS = tested on: U251 CNS
SW-620 colon = tested on: SW-620 colon
DU-145 prostate = tested on: DU-145 prostate
OVCAR-3 ovarian = tested on: OVCAR-3 ovarian
HS 578T breast = tested on: HS 578T breast
SN12C renal = tested on: SN12C renal
RPMI-8226 leukemia = tested on: RPMI-8226 leukemia
MOLT-4 leukemia = tested on: MOLT-4 leukemia
SR leukemia = tested on: SR leukemia
SF-268 CNS = tested on: SF-268 CNS
HOP-62 NSCLC = tested on: HOP-62 NSCLC
UO-31 renal = tested on: UO-31 renal
EKVX NSCLC = tested on: EKVX NSCLC
A498 renal = tested on: A498 renal
K-562 leukemia = tested on: K-562 leukemia
BT-549 breast = tested on: BT-549 breast
OVCAR-5 ovarian = tested on: OVCAR-5 ovarian
ACHN renal = tested on: ACHN renal
SK-OV-3 ovarian = tested on: SK-OV-3 ovarian
HT29 colon = tested on: HT29 colon
TK-10 renal = tested on: TK-10 renal
NCI-H522 lung = tested on: NCI-H522 lung
PC-3 prostate = tested on: PC-3 prostate
SK-MEL-5 melanoma = tested on: SK-MEL-5 melanoma

Measured: TGI

CC(C)(N=NC(C)(C)C(=N)N)C(=N)N
> 100 µM: all assays above
